# Measurements published in ChEMBL document CHEMBL1201862, “PubChem BioAssay data set” (2004).
#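 The compound was tested at five concentrations on cells cultured in 96-well plates, with a 48-hour exposure period. Abbreviation: GI50, concentration required for 50% inhibition of growth.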 Active and inactive are the calls of the source. Rule as the data show it: active = GI50 up to about 1.1 µM and inactive = higher.
# Legend:
# Assay in all cases: NCI anticancer screen, dose series, 48 h
# HCT-116 = system: HCT-116
# SF-539 = system: SF-539
# UACC-257 = system: UACC-257
# U-251 = system: U-251
# RPMI-8226 = system: RPMI-8226
# NCI/ADR-RES = system: NCI/ADR-RES
# SNB-75 = system: SNB-75
# MCF7 = system: MCF7
# HCT-15 = system: HCT-15
# MDA-N = system: MDA-N
# SNB-19 = system: SNB-19
# NCI-H460 = system: NCI-H460
# SN12C = system: SN12C
# SF-295 = system: SF-295
# T47D = system: T47D
# HCC 2998 = system: HCC 2998
# SW-620 = system: SW-620
# NCI-H522 = system: NCI-H522
# PC-3 = system: PC-3
# CCRF-CEM = system: CCRF-CEM
# MOLT-4 = system: MOLT-4
# HOP-92 = system: HOP-92
# A498 = system: A498
# KM12 = system: KM12
# MDA-MB-435 = system: MDA-MB-435
# UO-31 = system: UO-31
# SK-MEL-5 = system: SK-MEL-5
# ACHN = system: ACHN
# SK-MEL-2 = system: SK-MEL-2
# BT-549 = system: BT-549
# LOX IMVI = system: LOX IMVI
# OVCAR-8 = system: OVCAR-8
# COLO 205 = system: COLO 205
# IGROV-1 = system: IGROV-1
# HOP-62 = system: HOP-62
# SR = system: SR
# NCI-H23 = system: NCI-H23
# TK-10 = system: TK-10
# OVCAR-4 = system: OVCAR-4
# CAKI-1 = system: CAKI-1
# RXF 393 = system: RXF 393
# UACC-62 = system: UACC-62
# OVCAR-3 = system: OVCAR-3
# Hs-578T = system: Hs-578T
# M14 = system: M14
# DU-145 = system: DU-145
# OVCAR-5 = system: OVCAR-5
# 786-0 = system: 786-0
# K562 = system: K562
# EKVX = system: EKVX
# HT-29 = system: HT-29
# Malme-3M = system: Malme-3M
# SK-MEL-28 = system: SK-MEL-28
# SF-268 = system: SF-268
# A549 = system: A549
# HL-60 = system: HL-60
smiles,measurement,setting,value
CC1C(c2ccc(N(C)C)cc2)c2cc3c(cc2OC1N1CCCC1)OCO3 (stereo unspecified),GI50,HCT-116,36.4 µM (inactive)
same,GI50,SF-539,21.7 µM (inactive)
same,GI50,UACC-257,> 92.5 µM (inactive)
same,GI50,U-251,34 µM (inactive)
same,GI50,RPMI-8226,36.1 µM (inactive)
same,GI50,NCI/ADR-RES,33.6 µM (inactive)
same,GI50,SNB-75,> 34.4 µM (inactive)
same,GI50,MCF7,24.3 µM (inactive)
same,GI50,HCT-15,36.9 µM
same,GI50,MDA-N,14.6 µM (inactive)
same,GI50,SNB-19,48.3 µM (inactive)
same,GI50,NCI-H460,34.5 µM (inactive)
same,GI50,SN12C,63.1 µM (inactive)
same,GI50,SF-295,32.1 µM (inactive)
same,GI50,T47D,54.3 µM (inactive)
same,GI50,HCC 2998,34.6 µM (inactive)
same,GI50,SW-620,42 µM (inactive)
same,GI50,NCI-H522,29.5 µM (inactive)
same,GI50,PC-3,37.3 µM (inactive)
same,GI50,CCRF-CEM,36 µM (inactive)
same,GI50,MOLT-4,48.8 µM (inactive)
same,GI50,HOP-92,6.25 µM (inactive)
same,GI50,A498,20.7 µM (inactive)
same,GI50,KM12,47.2 µM (inactive)
same,GI50,MDA-MB-435,16.6 µM (inactive)
same,GI50,UO-31,30.8 µM (inactive)
same,GI50,SK-MEL-5,30.6 µM (inactive)
same,GI50,ACHN,> 72.9 µM (inactive)
same,GI50,SK-MEL-2,30.5 µM (inactive)
same,GI50,BT-549,38.2 µM (inactive)
same,GI50,LOX IMVI,38.2 µM (inactive)
same,GI50,OVCAR-8,70.3 µM (inactive)
same,GI50,COLO 205,45 µM (inactive)
same,GI50,IGROV-1,> 65.8 µM (inactive)
same,GI50,HOP-62,25.2 µM (inactive)
same,GI50,SR,38.8 µM (inactive)
same,GI50,NCI-H23,58.3 µM (inactive)
same,GI50,TK-10,98.6 µM (inactive)
same,GI50,OVCAR-4,> 100 µM (inactive)
same,GI50,CAKI-1,38.5 µM (inactive)
same,GI50,RXF 393,22.9 µM (inactive)
same,GI50,UACC-62,46.1 µM (inactive)
same,GI50,OVCAR-3,43.5 µM (inactive)
same,GI50,Hs-578T,28.8 µM (inactive)
same,GI50,M14,31.9 µM (inactive)
same,GI50,DU-145,66.2 µM (inactive)
same,GI50,OVCAR-5,> 87.1 µM (inactive)
same,GI50,786-0,43 µM (inactive)
same,GI50,K562,32.5 µM (inactive)
same,GI50,EKVX,64.6 µM (inactive)
same,GI50,HT-29,32.5 µM (inactive)
same,GI50,Malme-3M,40.7 µM (inactive)
same,GI50,SK-MEL-28,> 72.8 µM (inactive)
same,GI50,SF-268,66.8 µM (inactive)
same,GI50,A549,45.3 µM (inactive)
same,GI50,HL-60,28 µM (inactive)
